Laboratory results taken from ChEMBL document CHEMBL1145498, “A systematic interaction map of validated kinase inhibitors with Ser/Thr kinases” (Proc Natl Acad Sci U S A, 2007).

Biological target: T1, Calcium/calmodulin-dependent protein kinase type IV (Homo sapiens) (UniProt Q16566)
T1 sequence (whole entry): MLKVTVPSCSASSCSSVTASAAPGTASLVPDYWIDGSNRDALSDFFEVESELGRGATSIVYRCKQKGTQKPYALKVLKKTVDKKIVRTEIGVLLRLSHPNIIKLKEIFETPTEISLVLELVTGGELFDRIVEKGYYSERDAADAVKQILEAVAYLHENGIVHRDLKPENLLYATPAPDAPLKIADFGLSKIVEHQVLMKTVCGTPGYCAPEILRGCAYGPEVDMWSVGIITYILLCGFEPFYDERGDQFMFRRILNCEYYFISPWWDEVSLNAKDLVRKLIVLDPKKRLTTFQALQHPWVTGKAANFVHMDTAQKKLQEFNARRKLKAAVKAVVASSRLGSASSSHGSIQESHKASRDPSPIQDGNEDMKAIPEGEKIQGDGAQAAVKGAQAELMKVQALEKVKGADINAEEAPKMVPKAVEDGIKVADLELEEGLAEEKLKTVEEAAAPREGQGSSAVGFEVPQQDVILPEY

Structure (SMILES) | ΔTm [°C]
Cc1[nH]c(/C=C2\C(=O)Nc3ccc(S(=O)(=O)N(C)c4cccc(Cl)c4)cc32)c(C)c1C(=O)N1CCN(C)CC1 | -0.1
NCCNc1ncc(C(N)=O)c(Nc2cccc(C(F)(F)F)c2)n1 | 0.9
Cc1ccc(NC2=CC(=O)c3sc(C)nc3C2=O)cc1 | 3.7

The remaining lines, values ahead:

ΔTm [°C] | Structure (SMILES)
0.9 | COc1cc2ncnc(Nc3ccc(NC(=O)c4ccccc4)cc3)c2cc1OC [ANILINOQUINAZOLINE1]
0.5 | COc1cc2c(cc1OC)-c1n[nH]c(Nc3cccc(F)c3)c1C2
-0.4 | O=C(Nc1cccc(Nc2cc(Nc3cccc(C(F)(F)F)c3)ncn2)c1)C1CC1

Biological target: Serine/threonine-protein kinase RIO2 (Homo sapiens) (UniProt Q9BVS4)
Sequence (Q9BVS4 whole entry, looked up): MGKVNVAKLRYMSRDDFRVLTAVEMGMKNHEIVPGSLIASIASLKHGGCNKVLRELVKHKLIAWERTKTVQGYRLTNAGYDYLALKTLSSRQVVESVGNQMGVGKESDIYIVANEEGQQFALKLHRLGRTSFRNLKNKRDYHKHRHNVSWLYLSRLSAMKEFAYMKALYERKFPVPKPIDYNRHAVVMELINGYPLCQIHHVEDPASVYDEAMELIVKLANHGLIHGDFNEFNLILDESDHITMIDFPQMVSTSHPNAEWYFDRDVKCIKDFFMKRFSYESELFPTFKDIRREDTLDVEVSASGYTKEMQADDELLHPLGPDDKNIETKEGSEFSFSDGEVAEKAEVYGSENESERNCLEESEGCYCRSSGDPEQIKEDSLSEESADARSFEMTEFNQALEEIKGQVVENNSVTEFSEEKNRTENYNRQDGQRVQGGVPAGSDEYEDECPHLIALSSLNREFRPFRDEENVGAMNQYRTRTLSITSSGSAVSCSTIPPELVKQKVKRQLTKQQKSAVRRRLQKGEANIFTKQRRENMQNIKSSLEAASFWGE

Structure (SMILES) | ΔTm [°C]
Cc1[nH]c(/C=C2\C(=O)Nc3ccc(S(=O)(=O)N(C)c4cccc(Cl)c4)cc32)c(C)c1C(=O)N1CCN(C)CC1 | 1.4
NCCNc1ncc(C(N)=O)c(Nc2cccc(C(F)(F)F)c2)n1 | 4.7
Cc1ccc(NC2=CC(=O)c3sc(C)nc3C2=O)cc1 | 0.6

Results, then the compound that gave them:

ΔTm [°C] | Structure (SMILES)
0.6 | COc1cc2ncnc(Nc3ccc(NC(=O)c4ccccc4)cc3)c2cc1OC [ANILINOQUINAZOLINE1]
-0.2 | COc1cc2c(cc1OC)-c1n[nH]c(Nc3cccc(F)c3)c1C2
3.4 | O=C(Nc1cccc(Nc2cc(Nc3cccc(C(F)(F)F)c3)ncn2)c1)C1CC1

Biological target: Ribosomal protein S6 kinase alpha-3 (Homo sapiens) (UniProt P51812)
Sequence (P51812 whole entry): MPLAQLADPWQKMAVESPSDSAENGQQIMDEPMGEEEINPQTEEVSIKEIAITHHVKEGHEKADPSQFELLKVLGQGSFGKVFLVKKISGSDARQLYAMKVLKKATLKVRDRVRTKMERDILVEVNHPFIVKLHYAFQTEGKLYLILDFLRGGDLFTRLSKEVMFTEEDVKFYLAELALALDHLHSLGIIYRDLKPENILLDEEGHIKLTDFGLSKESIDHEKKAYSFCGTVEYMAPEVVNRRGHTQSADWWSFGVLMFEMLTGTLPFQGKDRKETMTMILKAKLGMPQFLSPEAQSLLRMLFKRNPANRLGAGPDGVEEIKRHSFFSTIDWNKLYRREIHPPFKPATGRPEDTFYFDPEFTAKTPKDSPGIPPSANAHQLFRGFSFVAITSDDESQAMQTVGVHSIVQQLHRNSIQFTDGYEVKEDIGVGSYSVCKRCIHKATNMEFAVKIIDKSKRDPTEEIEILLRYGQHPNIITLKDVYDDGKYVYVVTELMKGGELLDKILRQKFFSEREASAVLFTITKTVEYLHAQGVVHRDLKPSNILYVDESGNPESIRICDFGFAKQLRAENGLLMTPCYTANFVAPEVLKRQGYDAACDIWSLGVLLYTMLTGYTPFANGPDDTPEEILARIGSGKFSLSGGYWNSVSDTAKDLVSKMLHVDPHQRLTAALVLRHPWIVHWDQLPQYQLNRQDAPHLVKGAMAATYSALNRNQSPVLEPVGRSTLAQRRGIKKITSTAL

Structure (SMILES) | ΔTm [°C]
Cc1[nH]c(/C=C2\C(=O)Nc3ccc(S(=O)(=O)N(C)c4cccc(Cl)c4)cc32)c(C)c1C(=O)N1CCN(C)CC1 | 7.7
NCCNc1ncc(C(N)=O)c(Nc2cccc(C(F)(F)F)c2)n1 | 3.3
Cc1ccc(NC2=CC(=O)c3sc(C)nc3C2=O)cc1 | -0.5

Second part, the compound after the results:

ΔTm [°C] | Structure (SMILES)
5.5 | COc1cc2ncnc(Nc3ccc(NC(=O)c4ccccc4)cc3)c2cc1OC [ANILINOQUINAZOLINE1]
2.2 | COc1cc2c(cc1OC)-c1n[nH]c(Nc3cccc(F)c3)c1C2
5.6 | O=C(Nc1cccc(Nc2cc(Nc3cccc(C(F)(F)F)c3)ncn2)c1)C1CC1

Biological target: Serine/threonine-protein kinase PAK 4 (Homo sapiens) (UniProt O96013)
Sequence (O96013 whole entry, looked up): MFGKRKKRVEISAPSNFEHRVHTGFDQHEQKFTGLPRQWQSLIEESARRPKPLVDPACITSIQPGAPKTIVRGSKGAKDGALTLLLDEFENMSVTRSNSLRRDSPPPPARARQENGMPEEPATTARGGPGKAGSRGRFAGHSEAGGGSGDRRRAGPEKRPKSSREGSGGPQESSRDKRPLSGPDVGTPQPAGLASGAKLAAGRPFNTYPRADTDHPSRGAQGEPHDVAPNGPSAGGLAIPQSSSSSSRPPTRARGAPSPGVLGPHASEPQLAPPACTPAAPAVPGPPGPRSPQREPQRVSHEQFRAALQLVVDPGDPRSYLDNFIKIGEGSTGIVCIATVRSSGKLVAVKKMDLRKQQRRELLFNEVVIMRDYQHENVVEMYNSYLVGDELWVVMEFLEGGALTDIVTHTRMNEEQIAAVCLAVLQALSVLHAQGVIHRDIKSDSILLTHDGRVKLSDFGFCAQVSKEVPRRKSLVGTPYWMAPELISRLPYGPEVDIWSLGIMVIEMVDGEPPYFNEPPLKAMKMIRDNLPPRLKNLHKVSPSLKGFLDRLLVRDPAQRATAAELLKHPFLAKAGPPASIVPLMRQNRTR

Structure (SMILES) | ΔTm [°C]
Cc1[nH]c(/C=C2\C(=O)Nc3ccc(S(=O)(=O)N(C)c4cccc(Cl)c4)cc32)c(C)c1C(=O)N1CCN(C)CC1 | 1.4
NCCNc1ncc(C(N)=O)c(Nc2cccc(C(F)(F)F)c2)n1 | 6.1
Cc1ccc(NC2=CC(=O)c3sc(C)nc3C2=O)cc1 | -0.7

The remaining lines, values ahead:

ΔTm [°C] | Structure (SMILES)
0 | COc1cc2ncnc(Nc3ccc(NC(=O)c4ccccc4)cc3)c2cc1OC [ANILINOQUINAZOLINE1]
0 | COc1cc2c(cc1OC)-c1n[nH]c(Nc3cccc(F)c3)c1C2
0.9 | O=C(Nc1cccc(Nc2cc(Nc3cccc(C(F)(F)F)c3)ncn2)c1)C1CC1

Biological target: T2, Lymphokine-activated killer T-cell-originated protein kinase (Homo sapiens) (UniProt Q96KB5)
T2 sequence (whole entry): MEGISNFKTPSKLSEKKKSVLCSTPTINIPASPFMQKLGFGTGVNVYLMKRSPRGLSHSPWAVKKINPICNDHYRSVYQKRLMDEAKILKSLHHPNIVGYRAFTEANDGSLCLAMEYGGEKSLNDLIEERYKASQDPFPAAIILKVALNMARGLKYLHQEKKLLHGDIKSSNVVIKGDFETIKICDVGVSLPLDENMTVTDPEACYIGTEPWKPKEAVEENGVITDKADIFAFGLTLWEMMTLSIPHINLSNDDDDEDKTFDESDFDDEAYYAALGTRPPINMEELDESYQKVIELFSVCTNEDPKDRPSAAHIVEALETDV

Structure (SMILES) | ΔTm [°C]
Cc1[nH]c(/C=C2\C(=O)Nc3ccc(S(=O)(=O)N(C)c4cccc(Cl)c4)cc32)c(C)c1C(=O)N1CCN(C)CC1 | 0.1
COc1cc2ncnc(Nc3ccc(NC(=O)c4ccccc4)cc3)c2cc1OC [ANILINOQUINAZOLINE1] | 0.3
COc1cc2c(cc1OC)-c1n[nH]c(Nc3cccc(F)c3)c1C2 | 0.2
NCCNc1ncc(C(N)=O)c(Nc2cccc(C(F)(F)F)c2)n1 | 0.5

Biological target: Serine/threonine-protein kinase pim-3 (Homo sapiens) (UniProt Q86V86)

Structure (SMILES) | ΔTm [°C]
Cc1[nH]c(/C=C2\C(=O)Nc3ccc(S(=O)(=O)N(C)c4cccc(Cl)c4)cc32)c(C)c1C(=O)N1CCN(C)CC1 | 9.7
NCCNc1ncc(C(N)=O)c(Nc2cccc(C(F)(F)F)c2)n1 | 1.1
Cc1ccc(NC2=CC(=O)c3sc(C)nc3C2=O)cc1 | -0.4

The next lines start with the values.

ΔTm [°C] | Structure (SMILES)
6.2 | COc1cc2ncnc(Nc3ccc(NC(=O)c4ccccc4)cc3)c2cc1OC [ANILINOQUINAZOLINE1]
2.6 | COc1cc2c(cc1OC)-c1n[nH]c(Nc3cccc(F)c3)c1C2
0.1 | O=C(Nc1cccc(Nc2cc(Nc3cccc(C(F)(F)F)c3)ncn2)c1)C1CC1

Biological target: Serine/threonine-protein kinase 16 (Homo sapiens) (UniProt O75716)
Sequence (O75716 whole entry): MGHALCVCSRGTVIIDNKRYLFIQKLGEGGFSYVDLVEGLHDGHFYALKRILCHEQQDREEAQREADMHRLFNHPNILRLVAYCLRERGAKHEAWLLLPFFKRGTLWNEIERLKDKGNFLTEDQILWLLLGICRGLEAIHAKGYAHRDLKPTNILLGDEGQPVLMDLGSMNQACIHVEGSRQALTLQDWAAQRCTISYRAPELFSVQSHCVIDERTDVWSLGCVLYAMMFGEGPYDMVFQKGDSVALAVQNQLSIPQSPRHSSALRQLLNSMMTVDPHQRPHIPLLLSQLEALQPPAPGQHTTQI

Structure (SMILES) | ΔTm [°C]
Cc1[nH]c(/C=C2\C(=O)Nc3ccc(S(=O)(=O)N(C)c4cccc(Cl)c4)cc32)c(C)c1C(=O)N1CCN(C)CC1 | 0.6
NCCNc1ncc(C(N)=O)c(Nc2cccc(C(F)(F)F)c2)n1 | 1.9
Cc1ccc(NC2=CC(=O)c3sc(C)nc3C2=O)cc1 | -1.2

The remaining lines, values ahead:

ΔTm [°C] | Structure (SMILES)
0.4 | COc1cc2ncnc(Nc3ccc(NC(=O)c4ccccc4)cc3)c2cc1OC [ANILINOQUINAZOLINE1]
0.4 | COc1cc2c(cc1OC)-c1n[nH]c(Nc3cccc(F)c3)c1C2
3.4 | O=C(Nc1cccc(Nc2cc(Nc3cccc(C(F)(F)F)c3)ncn2)c1)C1CC1

Biological target: Casein kinase I isoform gamma-2 (Homo sapiens) (UniProt P78368)
Sequence (P78368 whole entry, looked up, canonical isoform): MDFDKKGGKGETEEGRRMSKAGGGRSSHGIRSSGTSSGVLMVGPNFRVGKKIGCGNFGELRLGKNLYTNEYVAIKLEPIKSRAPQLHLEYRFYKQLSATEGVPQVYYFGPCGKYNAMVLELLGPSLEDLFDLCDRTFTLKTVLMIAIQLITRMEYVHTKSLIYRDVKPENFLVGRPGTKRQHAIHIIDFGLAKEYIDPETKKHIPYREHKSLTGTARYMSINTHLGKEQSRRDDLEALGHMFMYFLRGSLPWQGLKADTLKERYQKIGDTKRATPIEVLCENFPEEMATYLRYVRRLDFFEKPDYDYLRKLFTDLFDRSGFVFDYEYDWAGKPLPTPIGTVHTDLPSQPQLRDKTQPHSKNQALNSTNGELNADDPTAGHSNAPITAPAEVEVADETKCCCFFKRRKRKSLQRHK

Structure (SMILES) | ΔTm [°C]
Cc1[nH]c(/C=C2\C(=O)Nc3ccc(S(=O)(=O)N(C)c4cccc(Cl)c4)cc32)c(C)c1C(=O)N1CCN(C)CC1 | 0.3
NCCNc1ncc(C(N)=O)c(Nc2cccc(C(F)(F)F)c2)n1 | 0.7
Cc1ccc(NC2=CC(=O)c3sc(C)nc3C2=O)cc1 | 0

More lines, now with the values ahead:

ΔTm [°C] | Structure (SMILES)
0.5 | COc1cc2ncnc(Nc3ccc(NC(=O)c4ccccc4)cc3)c2cc1OC [ANILINOQUINAZOLINE1]
0.3 | COc1cc2c(cc1OC)-c1n[nH]c(Nc3cccc(F)c3)c1C2
2.3 | O=C(Nc1cccc(Nc2cc(Nc3cccc(C(F)(F)F)c3)ncn2)c1)C1CC1

Biological target: Cyclin-dependent kinase 2 (Homo sapiens, UniProt P24941)

Structure (SMILES) | ΔTm [°C]
Cc1[nH]c(/C=C2\C(=O)Nc3ccc(S(=O)(=O)N(C)c4cccc(Cl)c4)cc32)c(C)c1C(=O)N1CCN(C)CC1 | -0.4
NCCNc1ncc(C(N)=O)c(Nc2cccc(C(F)(F)F)c2)n1 | 0.1
Cc1ccc(NC2=CC(=O)c3sc(C)nc3C2=O)cc1 | 0.2

Now from value to compound:

ΔTm [°C] | Structure (SMILES)
-0.5 | COc1cc2ncnc(Nc3ccc(NC(=O)c4ccccc4)cc3)c2cc1OC [ANILINOQUINAZOLINE1]
0 | COc1cc2c(cc1OC)-c1n[nH]c(Nc3cccc(F)c3)c1C2
-1.5 | O=C(Nc1cccc(Nc2cc(Nc3cccc(C(F)(F)F)c3)ncn2)c1)C1CC1

Biological target: T3, Serine/threonine-protein kinase 4 (Homo sapiens) (UniProt Q13043)
T3 sequence (whole entry): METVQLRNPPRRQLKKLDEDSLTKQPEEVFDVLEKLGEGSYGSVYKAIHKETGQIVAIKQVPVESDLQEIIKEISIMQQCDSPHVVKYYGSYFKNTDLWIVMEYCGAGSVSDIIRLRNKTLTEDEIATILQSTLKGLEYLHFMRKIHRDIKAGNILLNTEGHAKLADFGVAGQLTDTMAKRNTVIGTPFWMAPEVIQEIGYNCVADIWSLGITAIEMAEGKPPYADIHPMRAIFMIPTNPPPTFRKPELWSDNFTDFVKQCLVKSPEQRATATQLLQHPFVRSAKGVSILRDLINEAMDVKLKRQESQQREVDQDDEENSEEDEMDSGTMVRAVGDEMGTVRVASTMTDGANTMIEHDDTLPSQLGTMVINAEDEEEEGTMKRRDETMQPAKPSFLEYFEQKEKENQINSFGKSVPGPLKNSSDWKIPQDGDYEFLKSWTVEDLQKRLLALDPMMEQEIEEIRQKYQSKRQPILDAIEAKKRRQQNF

Structure (SMILES) | ΔTm [°C]
Cc1[nH]c(/C=C2\C(=O)Nc3ccc(S(=O)(=O)N(C)c4cccc(Cl)c4)cc32)c(C)c1C(=O)N1CCN(C)CC1 | 0.1
NCCNc1ncc(C(N)=O)c(Nc2cccc(C(F)(F)F)c2)n1 | 0.7
Cc1ccc(NC2=CC(=O)c3sc(C)nc3C2=O)cc1 | -1.3

Second part, the compound after the results:

ΔTm [°C] | Structure (SMILES)
0.6 | COc1cc2ncnc(Nc3ccc(NC(=O)c4ccccc4)cc3)c2cc1OC [ANILINOQUINAZOLINE1]
0.7 | COc1cc2c(cc1OC)-c1n[nH]c(Nc3cccc(F)c3)c1C2
1.4 | O=C(Nc1cccc(Nc2cc(Nc3cccc(C(F)(F)F)c3)ncn2)c1)C1CC1
